US20200270309A1, “MALEIMIDE GROUP-MODIFIED ANGIOGENESIS INHIBITOR HM-1 AND USE THEREOF” (NANJING ANJI BIOLOGICAL TECHNOLOGY CO., LTD, priority 2017, published 2020)
Peptide text beside a SMILES is read from it. * marks the point of attachment. X66 = O=C1C=CC(=O)N1c1cccc(CCCCCCCC(=O)*)c1

System: xylene-induced ear swelling
Test: Xylene-induced mouse ear swelling
Assay type: in vivo
Conditions: Kunming mice, dose 2 mg/kg, injected once a day for 5 days
Experimental: Kunming mice were taken, a normal saline group was taken as a blank control group, an aspirin group (200 mg/kg) was taken as a positive control group, and X1-X90 administration groups were taken as test groups. The mice were injected once a day for 5 consecutive days. The blank control group was given an equal volume of normal saline. One hour after the last administration, 0.05 mL of xylene was applied to both sides of the right ear of each mouse to cause inflammation, while no drug was applied to the left ear as a normal ear. Two hours later, the mice were put to death by dislocation. Two ears were cut along the auricle. Ear pieces were taken with a puncher and weighed, and the swelling degree and the swelling rate were calculated. Swelling degree=right ear piece weight-left ear piece weight, swelling rate=(swelling degree/left ear piece weight)*100%. Statistical t-test was conducted on the experimental results. *P<0.05 indicates significant difference, and **P<0.01 indicates extremely significant difference.

## C[C@H](NC(=O)CNC(=O)[C@H](CCCNC(=N)N)NC(=O)CCCCCCCc1cccc(N2C(=O)C=CC2=O)c1)C(=O)N[C@@H](CC(=O)O)C(=O)N[C@@H](CCCNC(=N)N)C(=O)N[C@@H](C)C(=O)NCC(=O)NCC(=O)NCC(=O)NCC(=O)N[C@@H](CCCNC(=N)N)C(=O)NCC(=O)N[C@@H](CC(=O)O)C(=O)O [X31] (X66-RGADRAGGGGRGD-OH)
Right minus left ear piece weight 2 h after xylene
  Swelling degree: 3.16 ± 0.55 mg
xylene-induced ear swelling
  Inhibition rate (%): 16.85%
